Test results reported in BindingDB's records for doi:10.1016/j.bmc.2014.01.014 (Shenyang Pharmaceutical University, 2014).
pIC50: −log10 of the molar value.

Target: Hepatocyte growth factor receptor (Homo sapiens, UniProt P08581)
Assay: Inhibition of c-Met (unknown origin) using poly (Glu, Tyr) 4:1 after 30 mins by HTRF assay

With `COc1cc2c(Oc3ccc(N=Cc4c(O)n(-c5ccc(C)cc5)c(=O)[nH]c4=O)cc3F)ccnc2cc1OCCCN1CCN(C)CC1` as the molecule, how does the pIC50 read?
Its pIC50 is 8.57.

With `COc1cc2c(Oc3ccc(N=Cc4c(O)n(-c5ccc(F)cc5F)c(=O)[nH]c4=O)cc3F)ccnc2cc1OCCCN1CCCC1` as the molecule, how does the pIC50 read?
The pIC50 was 7.92.

With `COc1cc2c(Oc3ccc(N=Cc4c(O)n(-c5ccc(F)cc5F)c(=O)[nH]c4=O)cc3F)ccnc2cc1OCCCN1CCOCC1` as the molecule, how does the pIC50 read?
Its pIC50 is 7.92.

With `COc1cc2c(Oc3ccc(N=Cc4c(O)n(-c5ccc(F)cc5)c(=O)[nH]c4=O)cc3F)ccnc2cc1OCCCN1CCCC1` as the molecule, how does the pIC50 read?
Its pIC50 is 8.57.
